According to ChEMBL document CHEMBL1124755, “Role of hydrogen bonding in ligand interaction with the N-methyl-D-aspartate receptor ion channel” (J Med Chem, 1990):

What follows are molecules tested against Glutamate NMDA receptor (assay: Evaluated for its affinity to bind ion channel binding sites (phencyclidine or PCP receptor) on the N-methyl-D-aspartate glutamate receptor in rat brain membrane using [3H]MK-801 as radioligand).
Format: cell membranes

IC50 [µM]	Compound
0.95	CC12Cc3ccccc3[C@@H](O)C(CN1)c1ccccc12 (mixture of isomers)
0.065	C[C@@]12N[C@@](C)(c3ccccc31)C(O)c1ccccc12 (mixture of isomers; 13)
6.6	C[C@@]12N[C@@](C)(c3ccccc31)C(O)c1ccccc12 (mixture of isomers; 14)

Compound	IC50 [µM]
C[C@@]12Cc3ccccc3C(CN1)[C@@H](O)c1ccccc12 (mixture of isomers)	8.1

Each molecule was assayed against Glutamate NMDA receptor (assay: Evaluated for its affinity to bind PCP N-methyl-D-aspartate (NMDA) glutamate receptor in rat brain membrane using [3H]MK-801 as radioligand).
Format: cell membranes

Compound	IC50 [µM]
C[C@]12Cc3ccccc3C[C@](C)(N1)c1ccccc12	0.03
c1ccc2c(c1)C[C@@H]1N[C@H](C2)c2ccccc21	0.64
C[C@]12N[C@H](Cc3ccccc31)Cc1ccccc12	0.14
C[C@]12N[C@](C)(c3ccccc31)c1ccccc12	0.024
CC12Cc3ccccc3[C@@H](N1)c1ccccc12 (mixture of isomers)	0.26
CC1c2ccccc2C[C@H]2N[C@]1(C)c1ccccc12 (mixture of isomers)	0.59
CC12Cc3ccccc3[C@H](Cc3ccccc31)N2 (mixture of isomers)	0.69
C[C@]12Cc3ccccc3[C@@H]3[C@H](c4ccccc41)N32 (mixture of isomers)	> 100
C[C@@]12Cc3ccccc3[C@@H](C=N1)c1ccccc12 (racemic)	> 100
Cc1cccc2c1[C@H]1Cc3ccccc3[C@]2(C)N1 (racemic)	3
C[C@@]12Cc3ccc(Cl)cc3C[C@@H](N1)c1ccccc12 (racemic)	0.19
CCCC[C@@]12Cc3ccccc3C[C@@](C)(N1)c1ccccc12 (racemic)	3.6
C[C@@]12Cc3ccc(O)cc3C[C@@H](N1)c1ccccc12 (racemic)	0.14
COc1ccc2c(c1)C[C@H]1N[C@@](C)(C2)c2ccccc21 (racemic)	0.22
C[C@@]12Cc3ccccc3C[C@@H](N1)c1cc(Br)ccc12 (racemic)	0.27
Cc1ccc2c(c1)C[C@H]1N[C@]2(C)c2ccccc21 (racemic)	0.64
C[C@]12Cc3ccccc3C[C@](O)(N1)c1ccccc12 (racemic)	0.104
C[C@@]12Cc3ccccc3C[C@@H](N1)c1ccccc12 (racemic)	0.086
CN1[C@@H]2Cc3ccccc3C[C@@]1(C)c1ccccc12 (racemic)	0.53
C[C@@]12Cc3ccc(Br)cc3C[C@@H](N1)c1ccccc12 (racemic)	0.32

Compound	IC50 [µM]
C[C@@]12Cc3ccccc3C[C@@H](N1)c1ccc(Br)cc12 (racemic)	0.14
Cc1ccc2c(c1)[C@@]1(C)N[C@@H]2Cc2ccccc21 (racemic)	0.1
C[C@@]12N[C@@H](c3ccccc31)[C@H](O)c1ccccc12 (racemic)	0.64
C[C@]12N[C@](C)(Cc3ccccc31)c1ccccc12 (racemic)	0.035
C[C@]12Cc3ccccc3C[C@H](c3ccccc31)N2Cc1ccccc1 (racemic)	23
C[C@@]12Cc3ccccc3C[C@@H](N1)c1cc(Cl)ccc12 (racemic)	0.25
CC[C@@]12Cc3ccccc3C[C@@H](N1)c1ccccc12 (racemic)	1.36
C[C@]12N[C@H](Cc3ccccc31)c1c2ccc2ccccc12 (racemic)	2.3
C[C@]12N[C@H](Cc3cc4ccccc4cc31)c1ccccc12 (racemic)	89
CCN1[C@@H]2Cc3ccccc3C[C@@]1(C)c1ccccc12 (racemic)	2.51
Cc1cccc2c1C[C@H]1N[C@]2(C)c2ccccc21 (racemic)	0.8
C[C@]12Cc3ccccc3C[C@H](c3ccccc31)[N+]2(C)C (racemic)	7.1
C[C@@]12Cc3ccccc3C[C@@H](N1)c1c(Cl)cccc12 (racemic)	1.37
C[C@]12N[C@H](Cc3c1ccc1ccccc31)c1ccccc12 (racemic)	5.8
Cc1ccc2c(c1)[C@]1(C)N[C@H](C2)c2ccccc21 (racemic)	0.032
Cc1ccc2c(c1)[C@H]1Cc3ccccc3[C@]2(C)N1 (racemic)	0.44
C[C@]12N[C@H](Cc3ccccc31)c1cc3ccccc3cc12 (racemic)	86
C[C@@]12Cc3cc(Br)ccc3C[C@@H](N1)c1ccccc12 (racemic)	0.079
C[C@@]12Cc3ccccc3C[C@@H](N1)c1ccccc12 (stereo in doubt; (+)-15)	0.104
C[C@@]12Cc3ccccc3C[C@@H](N1)c1ccccc12 (stereo in doubt; (-)-15)	0.106
